Assay results as given in ChEMBL document CHEMBL5257052, “Aromatic Polyketides from the Mangrove-Derived Streptomyces sp. SCSIO 40069” (2023).
Converted amounts (≈) assume the structure as drawn.

Key:
Assay type in all cases: functional
Acinetobacter baumannii = experiment: Antibacterial activity against Acinetobacter baumannii ATCC 19606 measured after 16 hrs by broth microdilution method
Vibrio alginolyticus = experiment: Antibacterial activity against Vibrio alginolyticus 13214 measured after 16 hrs by broth microdilution method
Staphylococcus aureus = experiment: Antibacterial activity against Staphylococcus aureus ATCC 29213 measured after 16 hrs by broth microdilution method
Klebsiella pneumoniae = experiment: Antibacterial activity against Klebsiella pneumoniae ATCC 13883 measured after 16 hrs by broth microdilution method
Micrococcus luteus = experiment: Antibacterial activity against Micrococcus luteus SCSIO ML01 measured after 16 hrs by broth microdilution method

CC(=O)c1c(O)cc2c3c(cccc13)C=C(C=O)O2
MIC (Acinetobacter baumannii): > 64 µg/mL | MIC (Vibrio alginolyticus): 32 µg/mL (≈ 126 µM) | MIC (Staphylococcus aureus): > 64 µg/mL | MIC (Klebsiella pneumoniae): 32 µg/mL (≈ 126 µM) | MIC (Micrococcus luteus): 32 µg/mL (≈ 126 µM)

CC(=O)c1c(O)cc2c3c(cccc13)C=C([C@@H](O)[C@H](C)O)O2
MIC (Acinetobacter baumannii): > 64 µg/mL | MIC (Vibrio alginolyticus): > 64 µg/mL | MIC (Staphylococcus aureus): > 64 µg/mL | MIC (Klebsiella pneumoniae): > 64 µg/mL | MIC (Micrococcus luteus): > 64 µg/mL

CC(=O)CC1=Cc2cccc3c(C(C)=O)c(O)cc(c23)O1
MIC (Acinetobacter baumannii): > 64 µg/mL | MIC (Vibrio alginolyticus): 32 µg/mL (≈ 113 µM) | MIC (Staphylococcus aureus): 8 µg/mL (≈ 28.3 µM) | MIC (Klebsiella pneumoniae): 8 µg/mL (≈ 28.3 µM) | MIC (Micrococcus luteus): 8 µg/mL (≈ 28.3 µM)

CC(=O)c1c(O)cc2c3c(cccc13)C=C([C@H](O)[C@H](C)O)O2
MIC (Acinetobacter baumannii): > 64 µg/mL | MIC (Vibrio alginolyticus): > 64 µg/mL | MIC (Staphylococcus aureus): > 64 µg/mL | MIC (Klebsiella pneumoniae): > 64 µg/mL | MIC (Micrococcus luteus): > 64 µg/mL

CC(=O)c1c(O)cc2c3c(cccc13)C=C([C@@H](O)[C@@H](C)O)O2
MIC (Acinetobacter baumannii): > 64 µg/mL | MIC (Vibrio alginolyticus): > 64 µg/mL | MIC (Staphylococcus aureus): > 64 µg/mL | MIC (Klebsiella pneumoniae): > 64 µg/mL | MIC (Micrococcus luteus): > 64 µg/mL

CC(=O)c1c(O)cc2c3c(cccc13)C=C([C@H](O)[C@@H](C)O)O2
MIC (Acinetobacter baumannii): 32 µg/mL (≈ 107 µM) | MIC (Vibrio alginolyticus): 64 µg/mL (≈ 213 µM) | MIC (Staphylococcus aureus): > 64 µg/mL | MIC (Klebsiella pneumoniae): 16 µg/mL (≈ 53.3 µM) | MIC (Micrococcus luteus): > 64 µg/mL

CC(=O)c1c(O)cc2c3c(cccc13)C=C(C)O2
MIC (Acinetobacter baumannii): > 64 µg/mL | MIC (Vibrio alginolyticus): 64 µg/mL (≈ 266 µM) | MIC (Staphylococcus aureus): > 64 µg/mL | MIC (Klebsiella pneumoniae): > 64 µg/mL | MIC (Micrococcus luteus): 64 µg/mL (≈ 266 µM)

CC(=O)c1c(O)cc2c3c(cccc13)C=C(CO)O2
MIC (Acinetobacter baumannii): 64 µg/mL (≈ 250 µM) | MIC (Vibrio alginolyticus): > 64 µg/mL | MIC (Staphylococcus aureus): 8 µg/mL (≈ 31.2 µM) | MIC (Klebsiella pneumoniae): 64 µg/mL (≈ 250 µM) | MIC (Micrococcus luteus): 8 µg/mL (≈ 31.2 µM)

COc1cc(Cc2cnc(N)nc2N)cc(OC)c1OC [TRIMETHOPRIM]
MIC (Acinetobacter baumannii): 0.125 µg/mL (≈ 0.431 µM) | MIC (Vibrio alginolyticus): 0.125 µg/mL (≈ 0.431 µM) | MIC (Staphylococcus aureus): 2 µg/mL (≈ 6.89 µM) | MIC (Klebsiella pneumoniae): 0.125 µg/mL (≈ 0.431 µM) | MIC (Micrococcus luteus): 2 µg/mL (≈ 6.89 µM)
